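Cells were grown in 96-well plates and exposed to each compound for 48 hours at five concentrations; endpoints were interpolated linearly between bracketing concentrations, or set to the highest concentration if not reached. The concentration for full growth arrest is given as TGI.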
Legend:
Assay in all cases: DTP human tumour cell line panel, 48 h
[1] = test system: 786-0 renal
[2] = test system: A549 NSCLC
[3] = test system: ACHN renal
[4] = test system: BT-549 breast
[5] = test system: CAKI-1 renal
[6] = test system: CCRF-CEM leukemia
[7] = test system: COLO 205 colon
[8] = test system: DU-145 prostate
[9] = test system: EKVX NSCLC
[10] = test system: HCC-2998 colon
[11] = test system: HCT-116 colon
[12] = test system: HCT-15 colon
[13] = test system: HOP-62 NSCLC
[14] = test system: HOP-92 NSCLC
[15] = test system: HS 578T breast
[16] = test system: HT29 colon
[17] = test system: IGROV1 ovarian
[18] = test system: K-562 leukemia
[19] = test system: KM12 colon
[20] = test system: M14 melanoma
[21] = test system: MCF7 breast
[22] = test system: MDA-MB-231 breast
[23] = test system: MDA-MB-435
[24] = test system: MDA-N
[25] = test system: MOLT-4 leukemia
[26] = test system: NCI-H226 lung
[27] = test system: NCI-H23 lung
[28] = test system: NCI-H460 lung
[29] = test system: NCI-H522 lung
[30] = test system: NCI/ADR-RES ovarian
[31] = test system: OVCAR-3 ovarian
[32] = test system: OVCAR-4 ovarian
[33] = test system: OVCAR-5 ovarian
[34] = test system: OVCAR-8 ovarian
[35] = test system: PC-3 prostate
[36] = test system: RPMI-8226 leukemia
[37] = test system: RXF 393 renal
[38] = test system: SF-268 CNS
[39] = test system: SF-295 CNS
[40] = test system: SF-539 CNS
[41] = test system: SK-MEL-2 melanoma
[42] = test system: SK-MEL-28 melanoma
[43] = test system: SK-MEL-5 melanoma
[44] = test system: SK-OV-3 ovarian
[45] = test system: SN12C renal
[46] = test system: SNB-19 CNS
[47] = test system: SNB-75 CNS
[48] = test system: SR leukemia
[49] = test system: SW-620 colon
[50] = test system: U251 CNS
[51] = test system: UACC-257 melanoma
[52] = test system: UACC-62 melanoma
[53] = test system: UO-31 renal
[54] = test system: LOX IMVI melanoma
[55] = test system: T-47D breast
[56] = test system: TK-10 renal

Clc1cc(N/N=C(/c2ccccc2)c2ncccn2)ncn1
TGI [1]: 79.3 µM
TGI [2]: 85.1 µM
TGI [3]: 22.9 µM
TGI [4]: > 100 µM
TGI [5]: 73.4 µM
TGI [6]: 73.9 µM
TGI [7]: 22.8 µM
TGI [8]: > 100 µM
TGI [9]: 93 µM
TGI [10]: > 100 µM
TGI [11]: 28.5 µM
TGI [12]: > 100 µM
TGI [13]: 59.3 µM
TGI [14]: 36.6 µM
TGI [15]: 66.7 µM
TGI [16]: > 100 µM
TGI [17]: 36.3 µM
TGI [18]: 51.8 µM
TGI [19]: > 100 µM
TGI [20]: > 100 µM
TGI [21]: 46.4 µM
TGI [22]: 82.1 µM
TGI [23]: > 100 µM
TGI [24]: > 100 µM
TGI [25]: > 100 µM
TGI [26]: > 100 µM
TGI [27]: 58.3 µM
TGI [28]: 46.6 µM
TGI [29]: 5.51 µM
TGI [30]: 50.8 µM
TGI [31]: 76 µM
TGI [32]: 68 µM
TGI [33]: > 100 µM
TGI [34]: 34.6 µM
TGI [35]: > 100 µM
TGI [36]: > 100 µM
TGI [37]: 41.4 µM
TGI [38]: > 100 µM
TGI [39]: 77.6 µM
TGI [40]: 54.7 µM
TGI [41]: 82.6 µM
TGI [42]: > 100 µM
TGI [43]: > 100 µM
TGI [44]: 35.7 µM
TGI [45]: > 100 µM
TGI [46]: > 100 µM
TGI [47]: 74.4 µM
TGI [48]: > 100 µM
TGI [49]: > 100 µM
TGI [50]: > 100 µM
TGI [51]: 64.4 µM
TGI [52]: > 100 µM
TGI [53]: 55.8 µM

CC1C(c2cc(C(C)(C)C)c(O)c(C(C)(C)C)c2)c2cc3c(cc2OC1N1CCOCC1)OCO3 (stereo not drawn)
TGI [1]: 27.1 µM
TGI [2]: 48 µM
TGI [3]: 22.7 µM
TGI [6]: > 100 µM
TGI [7]: > 100 µM
TGI [8]: > 100 µM
TGI [9]: > 100 µM
TGI [10]: 33.4 µM
TGI [11]: 30.7 µM
TGI [13]: 33.4 µM
TGI [15]: 10.6 µM
TGI [16]: > 100 µM
TGI [17]: > 100 µM
TGI [18]: > 100 µM
TGI [19]: > 100 µM
TGI [54]: 44.7 µM
TGI [20]: 59.3 µM
TGI [21]: > 100 µM
TGI [23]: 68.2 µM
TGI [24]: > 100 µM
TGI [25]: > 100 µM
TGI [27]: 94.9 µM
TGI [28]: 87 µM
TGI [29]: > 100 µM
TGI [30]: 87.4 µM
TGI [31]: 35 µM
TGI [33]: > 100 µM
TGI [34]: 60 µM
TGI [35]: 31.6 µM
TGI [36]: > 100 µM
TGI [38]: 77.3 µM
TGI [39]: 32.1 µM
TGI [40]: 43.7 µM
TGI [41]: 67.3 µM
TGI [42]: 40.5 µM
TGI [43]: 47.3 µM
TGI [45]: > 100 µM
TGI [46]: 40.5 µM
TGI [48]: > 100 µM
TGI [49]: > 100 µM
TGI [55]: > 100 µM
TGI [56]: 31.2 µM
TGI [51]: > 100 µM
TGI [52]: 72.9 µM
TGI [53]: 29.8 µM

— PubChem BioAssay (NCI)
